Laboratory results published in patent publication US20020058275A1, “Compositions, kits, and methods for effecting adenine nucleotide modulation of DNA mismatch recognition proteins” (Thomas Jefferson University, priority 1997, published 2002).

Experiments:
hMSH2:hMSH6 heterodimer [1] = target: T1, hMSH2:hMSH6 heterodimer (Homo sapiens, UniProt P43246+P52701); test: Gel mobility shift assay of adenine nucleotide effects on mismatch binding and release; type: biochemical; conditions: for effect on G/T mismatch binding / release of the heterodimer from G/T-mismatched DNA substrate: nucleotide added to the mismatch binding reaction mixture, FIG. 3 at 25 and 250 micromolar; for IC50: G/T-mismatched DNA substrate, read-out: IC50 (concentration required to cause release of 50% of a population of heterodimers from a G/T-mismatched DNA substrate); for S-shifted material re-associated with the DNA as NS-shifted heterodimer: increasing amounts of nucleotide added
T1 construct: made in house; host or cells: SF9 insect cells, baculovirus (pFastBac dual)
T1 sequence (P43246 whole entry): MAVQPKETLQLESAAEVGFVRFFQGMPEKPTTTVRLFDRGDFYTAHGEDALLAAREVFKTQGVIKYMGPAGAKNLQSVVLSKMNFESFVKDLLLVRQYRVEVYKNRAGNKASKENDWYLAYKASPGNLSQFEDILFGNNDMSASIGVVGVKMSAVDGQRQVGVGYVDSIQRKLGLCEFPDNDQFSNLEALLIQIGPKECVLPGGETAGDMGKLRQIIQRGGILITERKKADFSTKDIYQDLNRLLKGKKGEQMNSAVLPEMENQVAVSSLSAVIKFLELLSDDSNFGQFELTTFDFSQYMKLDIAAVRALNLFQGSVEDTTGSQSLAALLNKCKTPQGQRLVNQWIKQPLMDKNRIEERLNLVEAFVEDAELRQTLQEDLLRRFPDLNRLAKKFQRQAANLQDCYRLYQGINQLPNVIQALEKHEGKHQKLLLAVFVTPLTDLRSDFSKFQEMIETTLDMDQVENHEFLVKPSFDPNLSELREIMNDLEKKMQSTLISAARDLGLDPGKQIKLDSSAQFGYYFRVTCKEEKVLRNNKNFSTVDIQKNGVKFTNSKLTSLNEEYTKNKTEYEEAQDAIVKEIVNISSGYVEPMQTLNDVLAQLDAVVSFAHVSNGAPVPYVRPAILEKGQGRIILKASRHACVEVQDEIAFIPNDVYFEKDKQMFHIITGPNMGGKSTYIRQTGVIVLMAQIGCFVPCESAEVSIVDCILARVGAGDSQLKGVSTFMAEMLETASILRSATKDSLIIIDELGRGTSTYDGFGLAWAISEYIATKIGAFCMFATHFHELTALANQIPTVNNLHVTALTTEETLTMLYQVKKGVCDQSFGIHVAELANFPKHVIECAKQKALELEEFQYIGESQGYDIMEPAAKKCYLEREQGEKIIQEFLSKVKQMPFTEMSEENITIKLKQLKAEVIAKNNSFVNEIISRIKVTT
T1 sequence (P52701 whole entry): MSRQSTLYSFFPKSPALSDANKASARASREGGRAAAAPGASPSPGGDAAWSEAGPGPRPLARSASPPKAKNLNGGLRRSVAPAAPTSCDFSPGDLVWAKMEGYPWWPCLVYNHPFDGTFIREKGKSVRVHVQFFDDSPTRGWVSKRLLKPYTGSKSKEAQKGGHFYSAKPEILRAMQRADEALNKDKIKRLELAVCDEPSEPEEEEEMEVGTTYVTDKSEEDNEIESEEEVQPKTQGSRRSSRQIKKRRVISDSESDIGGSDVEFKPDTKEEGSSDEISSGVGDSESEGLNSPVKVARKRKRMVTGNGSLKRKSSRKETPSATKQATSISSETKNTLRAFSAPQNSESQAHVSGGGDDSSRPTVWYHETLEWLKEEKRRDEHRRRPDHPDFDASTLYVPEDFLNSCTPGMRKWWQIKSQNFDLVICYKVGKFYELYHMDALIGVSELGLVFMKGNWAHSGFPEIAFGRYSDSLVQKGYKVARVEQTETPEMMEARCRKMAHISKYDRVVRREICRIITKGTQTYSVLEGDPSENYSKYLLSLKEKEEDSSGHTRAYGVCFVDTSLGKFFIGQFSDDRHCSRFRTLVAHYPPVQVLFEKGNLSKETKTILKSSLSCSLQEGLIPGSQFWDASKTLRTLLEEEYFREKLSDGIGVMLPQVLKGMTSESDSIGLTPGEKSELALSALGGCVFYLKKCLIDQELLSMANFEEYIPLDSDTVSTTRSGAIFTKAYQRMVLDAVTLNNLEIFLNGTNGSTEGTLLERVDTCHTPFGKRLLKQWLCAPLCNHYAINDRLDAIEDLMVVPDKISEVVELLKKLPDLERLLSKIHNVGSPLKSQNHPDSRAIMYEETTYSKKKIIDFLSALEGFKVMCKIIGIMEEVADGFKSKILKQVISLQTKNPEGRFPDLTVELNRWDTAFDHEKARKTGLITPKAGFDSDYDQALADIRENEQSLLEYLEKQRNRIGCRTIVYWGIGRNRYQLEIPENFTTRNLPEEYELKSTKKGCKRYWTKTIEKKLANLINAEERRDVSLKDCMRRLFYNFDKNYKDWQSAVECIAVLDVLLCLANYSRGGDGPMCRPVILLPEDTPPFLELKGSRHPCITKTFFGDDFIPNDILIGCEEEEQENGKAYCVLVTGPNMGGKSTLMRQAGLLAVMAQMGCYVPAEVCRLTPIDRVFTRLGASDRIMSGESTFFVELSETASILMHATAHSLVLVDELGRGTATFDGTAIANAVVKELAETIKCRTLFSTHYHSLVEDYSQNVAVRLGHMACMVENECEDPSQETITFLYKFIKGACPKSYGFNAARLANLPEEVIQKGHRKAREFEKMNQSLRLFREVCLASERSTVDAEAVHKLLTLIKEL

[2] = target: T2, hMSH2:hMSH6 heterodimer ATPase (Homo sapiens, UniProt P43246+P52701); test: ATPase assays (steady state and initial velocity); type: biochemical
T2 construct: made in house; host or cells: SF9 insect cells, baculovirus (pFastBac dual)
T2 sequence (P43246 whole entry): as the sequence (P43246 whole entry) above
T2 sequence (P52701 whole entry): as the sequence (P52701 whole entry) above
Experimental: Buffer P comprised 40 millimolar HEPES which had been adjusted to pH 7.8 using NaOH, 75 millimolar NaCl, 10 millimolar MgCl2, 1.75 millimolar DTT, and 0.075 millimolar EDTA, and 15% (v/v) glycerol. Steady state reaction measurements were made using 60 nanomolar hMSH2:hMSH6 heterodimer and either 240 nanomolar homoduplex 39-base pair DNA substrate or 240 nanomolar G/T mismatched 39-base pair DNA substrate. Reaction mixtures were incubated at 37° C. for thirty minutes, and the reaction was stopped by addition of 400 microliters of a solution comprising 10% (w/v) activated charcoal (Sigma Chemical Co., St. Louis, Mo.) and 1 millimolar EDTA. Charcoal was pelleted by centrifuging the mixture at 10,000 rotations per minute for ten minutes. The 32p content of duplicate 100 microliter aliquots of the supernatant was assessed by liquid scintillation.
Aliquots were removed at selected times and electrophoresed as described herein. A control aliquot was removed and prepared for electrophoresis prior to addition of the MgCl2-containing Buffer P to the reaction mixture.
TLC was performed as previously described (Fishel et al., 1988, Proc. Natl. Acad. Sci. USA 85:36-40).

[3] = system: G/T-mismatched 81-base pair DNA substrate; test: Gel mobility shift and DNase footprint assays of heterodimer binding to mismatched DNA
Experimental: (§1) Gel mobility shift assays were performed by incubating a hMSH2:hMSH6 heterodimer and 9 femtomoles of either the ^32P-labeled homologous 81-base pair DNA substrate or the ^32P-labeled G/T-mismatched 81-base pair DNA substrate in a buffer comprising 50 millimolar NaCl, 25 millimolar HEPES buffer which had been adjusted to pH 7.5 using NaOH, 1 millimolar DTT, 0.01 millimolar EDTA, and 15% (v/v) glycerol. The buffer included 10 nanograms per microliter of poly dI-dC (Pharmacia LKB Biotechnology Inc., Piscataway, N.J.). […] In certain experiments described herein, the incubation mixture further comprised selected concentrations of nucleotides or non-labeled DNA. In other experiments described herein, the incubation mixture further comprised 1 millimolar MgCl2 or 5 millimolar EDTA. […] Each incubation mixture was applied to a gel comprising 4% (w/v) polyacrylamide (29:1 ratio of acrylamide:bis-acrylamide) 4% (v/v) glycerol, 40 millimolar Tris acetate buffer (pH 7.8), and 1 millimolar EDTA. Electrophoresis was performed by applying 200 volts to the gel for two hours. Following electrophoresis, each gel was dried and quantitated using a phosphoimaging device obtained from Molecular Dynamics.
Incubation of the hMSH2:hMSH6 heterodimer with ^32P-labeled DNA substrates was performed as described for gel mobility shift assays, except that 18 femtomoles of 32p-labeled DNA substrate was used in each assay. Following incubation, 80 microliters of a buffer comprising 50 millimolar NaCl, 25 millimolar HEPES buffer which had been adjusted to pH 7.8 using NaOH, 1 millimolar DTT, 10 nanograms per microliter poly dI-dC, 1.25 millimolar CaCl2, 3.1 millimolar MgCl2, 10% (v/v) glycerol, and 33 picograms per microliter DNase (Boehringer Mannheim, Indianapolis, Ind.) was added to each incubation mixture. […]

[4] = system: homologous 81-base pair DNA substrate; test: Gel mobility shift and DNase footprint assays of heterodimer binding to homoduplex DNA; conditions: homoduplex concentrations greater than 400 nanomolar
Experimental: as §1, with “Dynamics. […]” for “Dynamics.”

hMSH2:hMSH6 heterodimer [5] = target: T1, hMSH2:hMSH6 heterodimer; test: ADP exchange assay (filter binding of [3H]-ADP); conditions: excess non-labeled ATP
Experimental: The ADP-ATP exchange rate was determined in a reaction mixture which comprised Buffer Q, 2.3 micromolar [^3H]-ADP, and 60 nanomolar hMSH2:hMSH6 heterodimer. Buffer Q comprised 25 millimolar HEPES which had been adjusted to pH 7.8 using NaOH, 75 millimolar NaCl, 10 millimolar MgCl2, 1 millimolar DTT, and 15% (v/v) glycerol. This reaction mixture was incubated for ten minutes at room temperature. 240 nanomolar G/T-mismatched 39-base pair DNA substrate was added to the reaction mixture, and the incubation was continued for an additional ten minutes. The final volume of the reaction mixture was 10 microliters. […] Reactions were incubated at 25° C. for a selected time and then halted by diluting the reaction mixture with 4 milliliters of an ice-cold stop buffer comprising 25 millimolar HEPES which had been adjusted to pH 7.8 using NaOH, 100 millimolar NaCl, and 10 millimolar MgCl2.
Each halted reaction mixture was immediately filtered on a HAWP nitrocellulose membrane (Millipore, Bedford, Mass.) and washed thrice with 4 milliliters of the ice-cold stop buffer. […] Radioactivity retained on the filters was quantified using a Beckman scintillation counter. […] The amount of [^3H]-ADP retained on the membrane to which the control reaction mixture was applied was considered to correspond to the amount of radioactivity retained when 100% of the complex had [^3H]-ADP bound thereto.

hMSH2:hMSH6 heterodimer [6] = target: T3, hMSH2:hMSH6 heterodimer (Homo sapiens, UniProt P43246;P52701 P43246:1-934,P52701:1-1360); test: EMSA; no NS product observed with 39-bp homoduplex; conditions: tags: 6xHis at N-terminus of hMSH6; Sf9 baculovirus (pFastBac dual) co-expression; fully complementary homoduplex
T3 sequence (P43246 whole entry, chain 1 of 2): as the sequence (P43246 whole entry) above
T3 sequence (P52701 whole entry, chain 2 of 2): as the sequence (P52701 whole entry) above
Experimental: (§2) The buffer included 10 nanograms per microliter of poly dI-dC (Pharmacia LKB Biotechnology Inc., Piscataway, N.J.). […] In certain experiments described herein, the incubation mixture further comprised selected concentrations of nucleotides or non-labeled DNA. In other experiments described herein, the incubation mixture further comprised 1 millimolar MgCl₂ or 5 millimolar EDTA. […] Each incubation mixture was applied to a gel comprising 4% (w/v) polyacrylamide (29:1 ratio of acrylamide:bis-acrylamide) 4% (v/v) glycerol, 40 millimolar Tris acetate buffer (pH 7.8), and 1 millimolar EDTA. Electrophoresis was performed by applying 200 volts to the gel for two hours. Following electrophoresis, each gel was dried and quantitated using a phosphoimaging device obtained from Molecular Dynamics.
hMSH2:hMSH6 heterodimer [7] = target: T3, hMSH2:hMSH6 heterodimer; test: EMSA; apparent Kd; no adenine nucleotide, no Mg; 50 mM NaCl, HEPES pH 7.5, poly dI-dC, 37 C; conditions: tags: 6xHis at N-terminus of hMSH6; Sf9 baculovirus (pFastBac dual) co-expression; label: 32P 5' end; single G/T mismatch
Experimental: as §2
(§3) The apparent dissociation constant (Kd) was determined in a simple buffer system comprising neither an adenine nucleotide nor magnesium using the homologous 81-base pair DNA substrate and the G/T-mismatched 81-base pair DNA substrate described herein.
hMSH2:hMSH6 heterodimer [8] = target: T3, hMSH2:hMSH6 heterodimer; test: footprint; DNase footprint; about 25 nt asymmetrically protected on both strands; no adenine nucleotide; conditions: tags: 6xHis at N-terminus of hMSH6; Sf9 baculovirus (pFastBac dual) co-expression; label: 32P 5' end; single G/T mismatch
Experimental: as §3

[9] = ATP alone as a substrate (absence of DNA)
[10] = ATP and G/C-mismatched DNA as substrates
[11] = ATP and G/T-mismatched DNA as substrates
[12] = 0.2 millimolar ATP, 1 millimolar MgCl2, ADP 0 to 3.2 millimolar

## Nc1ncnc2c1ncn2[C@H]1C[C@H](O)[C@@H](COP(=O)(O)OP(=O)(O)OP(=O)(O)O)O1 [dATP, 2′-deoxy adenosine triphosphate]
hMSH2:hMSH6 heterodimer [1]
  effect on G/T mismatch binding / release of the heterodimer from G/T-mismatched DNA substrate: caused release

## Nc1ncnc2c1ncn2[C@@H]1O[C@H](COP(=O)(O)OP(=O)(O)OP(=O)(O)O)[C@@H](O)[C@H]1O [ATP]
hMSH2:hMSH6 heterodimer [1]; 15 micromolar nucleotide, ten minutes of incubation at 37° C.
  mismatched DNA substrate binding activity recovered after magnesium addition: ~70%
hMSH2:hMSH6 heterodimer [1]
  IC50: ~3000 nM
  S-shifted material re-associated with the DNA as NS-shifted heterodimer: approximately 15%
hMSH2:hMSH6 heterodimer [1]; homoduplex DNA
  effect on binding of the heterodimer to homoduplex DNA (NS binding): not affected
[2]; 37° C.
  calculated Kcat for ATP: > 20 min⁻¹
[2]; [9]
  Km: ~10 µM
  kcat: about 0.9 minute^1
[2]; [10]
  Km: ~23 µM
  kcat: about 7.4 minute-^1
[2]; [11]
  Km: ~46 µM
  kcat: about 26 minute-^1

## hMSH2:hMSH6 heterodimer: purified human mismatch recognition complex of hMSH2 and six-histidine-tagged hMSH6, overexpressed in SF9 insect cells
[3]; 400-fold excess of non-labeled homoduplex DNA, no ATP
  half-life of the G/T-mismatched DNA substrate-bound heterodimer: greater than ten
[3]; buffer comprising neither an adenine nucleotide nor magnesium, gel shift and DNase footprint assays, read-out: apparent dissociation constant (Kd) for G/T mismatches
  Kd: ~20 nM
[3]; compared with literature values for hMSH2 alone
  efficiency of binding to a G/T mismatch relative to hMSH2 alone: at least ten
[4]
  saturability of binding of non-mismatched DNA: not saturable

## Nc1ncnc2c1ncn2[C@@H]1O[C@H](COP(=O)(O)OP(=O)(O)CP(=O)(O)O)[C@@H](O)[C@H]1O [AMP-PCP, adenyl-(beta-, gamma-methylene)-diphosphonate]
hMSH2:hMSH6 heterodimer [1]
  effect on G/T mismatch binding / release of the heterodimer from G/T-mismatched DNA substrate: Failure of AMP-PNP and AMP-PCP to stimulate release

## Adenosine-5′-O-3-thiotriphosphate [ATP-gamma-S]
hMSH2:hMSH6 heterodimer [1]
  IC50: 3000 nM
  S-shifted material re-associated with the DNA as NS-shifted heterodimer: approximately 15%
hMSH2:hMSH6 heterodimer [1]; following incubation at 37° C., time not stated
  mismatched DNA substrate binding activity recovered after magnesium addition: about 22%

## Nc1ncnc2c1ncn2[C@@H]1O[C@H](COP(=O)(O)OP(=O)(O)NP(=O)(O)O)[C@@H](O)[C@H]1O [AMP-PNP, adenylyl-imidodiphosphate]
hMSH2:hMSH6 heterodimer [1]
  effect on G/T mismatch binding / release of the heterodimer from G/T-mismatched DNA substrate: Failure of AMP-PNP and AMP-PCP to stimulate release

## Nc1ncnc2c1ncn2[C@@H]1O[C@H](COP(=O)(O)OP(=O)(O)O)[C@@H](O)[C@H]1O [ADP]
hMSH2:hMSH6 heterodimer [1]; [12]
  excess of ADP giving approximately complete reversal of ATP-caused substrate release: 16 fold
  excess of ADP to ATP giving reversal of approximately half of the ATP-caused substrate release: 2- to 3 fold
hMSH2:hMSH6 heterodimer [1]
  effect on G/T mismatch binding / release of the heterodimer from G/T-mismatched DNA substrate: increased binding affinity
hMSH2:hMSH6 heterodimer [5]; absence of DNA
  half-life of the ADP-bound heterodimer: greater than eight hundred
hMSH2:hMSH6 heterodimer [5]; presence of G/T-mismatched DNA substrate
  half-life of the ADP-bound heterodimer: less than two

B1: homologous 39-bp duplex (dsDNA)
DNA 1: CGGCGAATTCCACCAAGCTTGATCGCTCGAGGTACCAGG
DNA 2: CCTGGTACCTCGAGCGATCAAGCTTGGTGGAATTCGCCG
hMSH2:hMSH6 heterodimer [6]
  binding result: no binding

B2: G/T-mismatched 81-bp duplex (dsDNA)
DNA 1: AAAGCTGGAGCTGAAGCTTAGCTTAGGATCATCGAGGATCGAGCTCGGTGCAATTCAGCGGTACCCAATTCGCCCTATAGT
DNA 2: ACTATAGGGCGAATTGGGTACCGCTGAATTGCACCGAGCTTGATCCTCGATGATCCTAAGCTAAGCTTCAGCTCCAGCTTT
modifications: [G41 (strand 1) opposite T41 (strand 2), G/T mismatch]
hMSH2:hMSH6 heterodimer [7]
  Kd: 20 nM
hMSH2:hMSH6 heterodimer [8]
  Kd: 20 nM
